Measurements as given in patent US20240025884A1 (Dong-A ST Co., Ltd., priority 2022, published 2024).

Molecular target: GCN2 (Homo sapiens (Human), UniProt Q9P2K8)
Assay: GCN2 Biochemical Assay (TR-FRET, GFP-eIF2S1 substrate phosphorylation)
Conditions: read-out: IC50 (GCN2 Inhibitory Activity)
Outline: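 In-house GCN2 (1.6 nM 2× stock) phosphorylates GFP-eIF2S1 (50 nM 2× stock) with ATP (0.2 mM 2× stock) and tRNA, pH 7.5, 70 min at room temperature; 10-point 3.16-fold compound series. TR-FRET detection with Tb-anti-phospho antibody, 2–3 h, Ex 340/Em 490/520 nm; artifact plate spiked with phospho-substrate.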

Sequence of GCN2 (Q9P2K8 whole entry): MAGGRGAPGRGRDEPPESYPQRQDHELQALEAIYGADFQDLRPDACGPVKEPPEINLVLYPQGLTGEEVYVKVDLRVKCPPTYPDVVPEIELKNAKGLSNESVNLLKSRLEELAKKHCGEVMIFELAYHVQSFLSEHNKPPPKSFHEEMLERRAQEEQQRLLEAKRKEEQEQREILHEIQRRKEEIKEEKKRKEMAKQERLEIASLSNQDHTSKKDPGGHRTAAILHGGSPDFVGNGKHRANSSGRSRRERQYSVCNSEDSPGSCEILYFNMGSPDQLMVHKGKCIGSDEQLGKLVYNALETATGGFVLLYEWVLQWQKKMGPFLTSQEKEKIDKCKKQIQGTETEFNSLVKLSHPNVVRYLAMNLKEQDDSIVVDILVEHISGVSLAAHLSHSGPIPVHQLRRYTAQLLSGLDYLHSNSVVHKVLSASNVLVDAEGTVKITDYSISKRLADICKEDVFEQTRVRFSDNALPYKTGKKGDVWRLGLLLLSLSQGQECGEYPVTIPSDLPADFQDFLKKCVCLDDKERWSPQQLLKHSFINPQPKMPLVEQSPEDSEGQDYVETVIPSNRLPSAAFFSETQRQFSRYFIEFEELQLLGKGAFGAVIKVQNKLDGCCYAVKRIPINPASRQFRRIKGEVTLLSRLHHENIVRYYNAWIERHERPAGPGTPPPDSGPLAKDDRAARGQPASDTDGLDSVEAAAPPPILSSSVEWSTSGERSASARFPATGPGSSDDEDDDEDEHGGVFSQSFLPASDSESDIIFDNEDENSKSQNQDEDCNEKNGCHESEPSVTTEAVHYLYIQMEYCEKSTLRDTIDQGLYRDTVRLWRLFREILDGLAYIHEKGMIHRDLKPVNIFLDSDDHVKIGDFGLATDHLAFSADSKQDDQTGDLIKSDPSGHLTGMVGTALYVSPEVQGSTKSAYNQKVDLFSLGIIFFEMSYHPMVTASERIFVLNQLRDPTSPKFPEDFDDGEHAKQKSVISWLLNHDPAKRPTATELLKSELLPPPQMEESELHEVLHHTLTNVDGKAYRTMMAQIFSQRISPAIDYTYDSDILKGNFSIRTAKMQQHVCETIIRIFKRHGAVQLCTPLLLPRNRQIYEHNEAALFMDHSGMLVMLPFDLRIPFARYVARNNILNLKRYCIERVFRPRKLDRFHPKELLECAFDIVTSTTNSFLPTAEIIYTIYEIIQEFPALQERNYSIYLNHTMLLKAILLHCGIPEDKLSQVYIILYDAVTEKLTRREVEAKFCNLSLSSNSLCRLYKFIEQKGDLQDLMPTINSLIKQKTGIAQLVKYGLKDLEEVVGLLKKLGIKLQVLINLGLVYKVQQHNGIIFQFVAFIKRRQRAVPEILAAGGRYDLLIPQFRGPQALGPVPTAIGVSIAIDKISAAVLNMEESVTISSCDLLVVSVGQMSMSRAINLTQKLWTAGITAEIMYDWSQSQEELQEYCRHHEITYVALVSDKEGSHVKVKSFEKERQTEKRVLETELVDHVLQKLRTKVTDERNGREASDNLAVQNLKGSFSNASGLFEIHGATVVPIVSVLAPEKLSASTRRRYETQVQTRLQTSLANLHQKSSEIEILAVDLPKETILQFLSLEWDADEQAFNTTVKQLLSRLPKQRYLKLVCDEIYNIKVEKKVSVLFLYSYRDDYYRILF

| IC50 [nM] | SMILES |
| --- | --- |
| < 10 | CCN(CC)c1ccnc(O[C@H]2CCN(CC(=O)Nc3cccc4c(-c5nc(Nc6cc(C)n(C)n6)ncc5C)c[nH]c34)C2)n1 [Example 172, (S)-2-(3-((4-(diethylamino)pyrimidin-2-yl)oxy)pyrrolidin-1-yl)-N-(3-(2-((1,5-dimethyl-1H-pyrazol-3-yl)amino)-5-methylpyrimidin-4-yl)-1H-indol-7-yl)acetamide] |
| < 10 | Cc1cnc(Nc2cc(C)n(C)n2)nc1-c1c[nH]c2c(NC(=O)CN3CC[C@H](Oc4nccc(N5CCCC5)n4)C3)cccc12 [Example 173, (S)-N-(3-(2-((1,5-dimethyl-1H-pyrazol-3-yl)amino)-5-methylpyrimidin-4-yl)-1H-indol-7-yl)-2-(3-((4-(pyrrolidin-1-yl)pyrimidin-2-yl)oxy)pyrrolidin-1-yl)acetamide] |
| < 10 | Cc1cnc(Nc2cc(C)n(C)n2)nc1-c1c[nH]c2c(NC(=O)CN3CC[C@H](Oc4nccc(N5CCCCC5)n4)C3)cccc12 [Example 174, (S)-N-(3-(2-((1,5-dimethyl-1H-pyrazol-3-yl)amino)-5-methylpyrimidin-4-yl)-1H-indol-7-yl)-2-(3-((4-(piperidin-1-yl)pyrimidin-2-yl)oxy)pyrrolidin-1-yl)acetamide] |
| < 10 | Cc1cnc(Nc2cc(C)n(C)n2)nc1-c1c[nH]c2c(NC(=O)CN3CC[C@H](Oc4nccc(NC5CC5)n4)C3)cccc12 [Example 175, (S)-2-(3-((4-(cyclopropylamino)pyrimidin-2-yl)oxy)pyrrolidin-1-yl)-N-(3-(2-((1,5-dimethyl-1H-pyrazol-3-yl)amino)-5-methylpyrimidin-4-yl)-1H-indol-7-yl)acetamide] |
| 10 to 100 | Cc1cnc(Nc2cc(C)n(C)n2)nc1-c1c[nH]c2c(NC(=O)CN3CC[C@H](Oc4ncc(F)c(N)n4)C3)cccc12 [Example 176, (S)-2-(3-((4-amino-5-fluoropyrimidin-2-yl)oxy)pyrrolidin-1-yl)-N-(3-(2-((1,5-dimethyl-1H-pyrazol-3-yl)amino)-5-methylpyrimidin-4-yl)-1H-indol-7-yl)acetamide] |
| < 10 | CNc1nc(O[C@H]2CCN(CC(=O)Nc3cccc4c(-c5nc(Nc6cc(C)n(C)n6)ncc5C)c[nH]c34)C2)ncc1F [Example 177, (S)-N-(3-(2-((1,5-dimethyl-1H-pyrazol-3-yl)amino)-5-methylpyrimidin-4-yl)-1H-indol-7-yl)-2-(3-((5-fluoro-4-(methylamino)pyrimidin-2-yl)oxy)pyrrolidin-1-yl)acetamide] |
| < 10 | CCNc1nc(O[C@H]2CCN(CC(=O)Nc3cccc4c(-c5nc(Nc6cc(C)n(C)n6)ncc5C)c[nH]c34)C2)ncc1F [Example 178, (S)-N-(3-(2-((1,5-dimethyl-1H-pyrazol-3-yl)amino)-5-methylpyrimidin-4-yl)-1H-indol-7-yl)-2-(3-((4-(ethylamino)-5-fluoropyrimidin-2-yl)oxy)pyrrolidin-1-yl)acetamide] |
| < 10 | Cc1cnc(Nc2cc(C)n(C)n2)nc1-c1c[nH]c2c(NC(=O)CN3CC[C@H](Oc4ncc(F)c(NC5CC5)n4)C3)cccc12 [Example 179, (S)-2-(3-((4-(cyclopropylamino)-5-fluoropyrimidin-2-yl)oxy)pyrrolidin-1-yl)-N-(3-(2-((1,5-dimethyl-1H-pyrazol-3-yl)amino)-5-methylpyrimidin-4-yl)-1H-indol-7-yl)acetamide] |
| 10 to 100 | Cc1cnc(Nc2cc(C)n(C)n2)nc1-c1c[nH]c2c(NC(=O)CN3CC[C@H](Oc4ncc(F)c(NC5CCCCC5)n4)C3)cccc12 [Example 180, (S)-2-(3-((4-(cyclohexylamino)-5-fluoropyrimidin-2-yl)oxy)pyrrolidin-1-yl)-N-(3-(2-((1,5-dimethyl-1H-pyrazol-3-yl)amino)-5-methylpyrimidin-4-yl)-1H-indol-7-yl)acetamide] |
| < 10 | Cc1cnc(Nc2cc(C)n(C)n2)nc1-c1c[nH]c2c(NC(=O)CN3CC[C@H](Oc4ncc(F)c(N(C)C)n4)C3)cccc12 [Example 181, (S)-N-(3-(2-((1,5-dimethyl-1H-pyrazol-3-yl)amino)-5-methylpyrimidin-4-yl)-1H-indol-7-yl)-2-(3-((4-(dimethylamino)-5-fluoropyrimidin-2-yl)oxy)pyrrolidin-1-yl)acetamide] |

Second part, the molecule before the results:

| SMILES | IC50 [nM] |
| --- | --- |
| Cc1cnc(Nc2cc(C)n(C)n2)nc1-c1c[nH]c2c(NC(=O)CN3CC[C@H](Oc4cc(N5CCN(C)CC5)ncn4)C3)cccc12 [Example 165, (S)-N-(3-(2-((1,5-dimethyl-1H-pyrazol-3-yl)amino)-5-methylpyrimidin-4-yl)-1H-indol-7-yl)-2-(3-((6-(4-methylpiperazin-1-yl)pyrimidin-4-yl)oxy)pyrrolidin-1-yl)acetamide] | < 10 |
| CNc1cc(O[C@H]2CCN(CC(=O)Nc3cccc4c(-c5nc(Nc6cc(C)n(C)n6)ncc5C)c[nH]c34)C2)nc(N)n1 [Example 166, (S)-2-(3-((2-amino-6-(methylamino)pyrimidin-4-yl)oxy)pyrrolidin-1-yl)-N-(3-(2-((1,5-dimethyl-1H-pyrazol-3-yl)amino)-5-methylpyrimidin-4-yl)-1H-indol-7-yl)acetamide] | < 10 |
| Cc1cnc(Nc2cc(C)n(C)n2)nc1-c1c[nH]c2c(NC(=O)CN3CC[C@H](Oc4cc(N5CCCC5)nc(N)n4)C3)cccc12 [Example 167, (S)-2-(3-((2-amino-6-(pyrrolidin-1-yl)pyrimidin-4-yl)oxy)pyrrolidin-1-yl)-N-(3-(2-((1,5-dimethyl-1H-pyrazol-3-yl)amino)-5-methylpyrimidin-4-yl)-1H-indol-7-yl)acetamide] | 10 to 100 |
| Cc1cnc(Nc2cc(C)n(C)n2)nc1-c1c[nH]c2c(NC(=O)CN3CC[C@H](Oc4nccc(N)n4)C3)cccc12 [Example 168, (S)-2-(3-((4-aminopyrimidin-2-yl)oxy)pyrrolidin-1-yl)-N-(3-(2-((1,5-dimethyl-1H-pyrazol-3-yl)amino)-5-methylpyrimidin-4-yl)-1H-indol-7-yl)acetamide] | < 10 |
| CNc1ccnc(O[C@H]2CCN(CC(=O)Nc3cccc4c(-c5nc(Nc6cc(C)n(C)n6)ncc5C)c[nH]c34)C2)n1 [Example 169, (S)-N-(3-(2-((1,5-dimethyl-1H-pyrazol-3-yl)amino)-5-methylpyrimidin-4-yl)-1H-indol-7-yl)-2-(3-((4-(methylamino)pyrimidin-2-yl)oxy)pyrrolidin-1-yl)acetamide] | < 10 |
| Cc1cnc(Nc2cc(C)n(C)n2)nc1-c1c[nH]c2c(NC(=O)CN3CC[C@H](Oc4nccc(N(C)C)n4)C3)cccc12 [Example 170, (S)-N-(3-(2-((1,5-dimethyl-1H-pyrazol-3-yl)amino)-5-methylpyrimidin-4-yl)-1H-indol-7-yl)-2-(3-((4-(dimethylamino)pyrimidin-2-yl)oxy)pyrrolidin-1-yl)acetamide] | < 10 |
| CCN(C)c1ccnc(O[C@H]2CCN(CC(=O)Nc3cccc4c(-c5nc(Nc6cc(C)n(C)n6)ncc5C)c[nH]c34)C2)n1 [Example 171, (S)-N-(3-(2-((1,5-dimethyl-1H-pyrazol-3-yl)amino)-5-methylpyrimidin-4-yl)-1H-indol-7-yl)-2-(3-((4-(ethyl(methyl)amino)pyrimidin-2-yl)oxy)pyrrolidin-1-yl)acetamide] | < 10 |
